Test results published in ChEMBL document CHEMBL1157217, “Terpenoid indole alkaloids from Winchia calophylla” (J Nat Prod, 2006).

Tested on: A549
Test: Cytotoxicity against human A549 cells by SRB assay
Format: functional, cell-based

Structure (SMILES)	IC50 [µM]
COC(=O)C1=C2Nc3c(OC)cccc3[C@@]23CCN2C[C@@H]([C@H](C)O)[C@@H]1C[C@H]23	11.5
C/C=C1/CN2CC[C@]34C(=C(C(=O)OC)[C@H]1C[C@H]23)Nc1ccccc14 [AKUAMMICINE]	15
